# Molecular target: T1, Seed linoleate 13S-lipoxygenase-1 (Glycine max, UniProt P08170)
# T1 sequence (P08170 whole entry): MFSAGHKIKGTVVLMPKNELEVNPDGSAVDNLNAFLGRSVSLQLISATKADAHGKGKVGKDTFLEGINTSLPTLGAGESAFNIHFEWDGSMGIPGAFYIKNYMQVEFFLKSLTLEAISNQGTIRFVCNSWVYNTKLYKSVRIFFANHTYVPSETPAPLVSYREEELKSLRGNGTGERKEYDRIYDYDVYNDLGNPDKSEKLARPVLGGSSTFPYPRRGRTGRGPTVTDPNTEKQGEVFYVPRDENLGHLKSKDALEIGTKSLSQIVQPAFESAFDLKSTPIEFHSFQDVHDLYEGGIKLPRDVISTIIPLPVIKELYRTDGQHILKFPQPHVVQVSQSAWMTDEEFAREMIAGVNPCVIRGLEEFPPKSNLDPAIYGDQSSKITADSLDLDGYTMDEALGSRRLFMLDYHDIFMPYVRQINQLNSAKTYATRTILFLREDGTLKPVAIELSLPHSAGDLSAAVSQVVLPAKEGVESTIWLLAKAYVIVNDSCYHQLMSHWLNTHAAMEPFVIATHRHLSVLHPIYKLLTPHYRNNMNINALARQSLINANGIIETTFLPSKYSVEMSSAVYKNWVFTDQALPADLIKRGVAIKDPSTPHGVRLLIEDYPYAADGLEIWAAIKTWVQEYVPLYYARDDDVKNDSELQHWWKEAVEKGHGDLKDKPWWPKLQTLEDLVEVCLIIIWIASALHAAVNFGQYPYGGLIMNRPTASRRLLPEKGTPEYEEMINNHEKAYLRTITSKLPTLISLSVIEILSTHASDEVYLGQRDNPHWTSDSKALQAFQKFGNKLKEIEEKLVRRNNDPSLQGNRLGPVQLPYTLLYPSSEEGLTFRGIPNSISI
# Assay: Lipoxygenase Inhibition Assay
# Settings: pH 8; 25 °C
# Protocol: A mixture of test compound (10 μL; 1 mM) in MeOH, type-1B lipoxygenase (EC 1.13.11.12; from soyabean) (20 μL; 70 units) in 0.1 M aqueous phosphate buffer (pH 8.0) in a total volume of 160 μL was incubated for 10 min at 25°C. Then the reaction was initiated by the addition of a solution of linoleic acid as substrate (10 μL; 20 μM), resulting in the formation of (9Z,11E,13S)-13-hydroperoxyoctadeca-9,11-dienoate. The change in UV absorbance at 234 nm was followed over a period of 6 min. All reactions were performed in triplicate, and analyzed with a 96-well plate reader (SpectraMax Plus 384; Molecular Devices).
smiles,measurement,value
"COc1ccc(-c2coc3cc(O)cc(O)c3c2=O)cc1 [5,7-dihydroxy-3-(4-methoxyphenyl)-4H-chromen-4-one]",IC50,100 µM
COc1cc(-c2coc3cc(O)c(O)cc3c2=O)ccc1O [Conferin (1)],IC50,55.2 µM

# From BindingDB's records for doi:10.1080/14756360903179484 (University of Karachi, 2010)
